Results published in PubChem BioAssay (NCI).
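96-well plates; 48 h exposure; 5 concentrations. Endpoints by linear interpolation between flanking doses. Not reached: highest tested concentration assigned. TGI marks complete inhibition of growth.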

Tests used:
Assay in all cases: NCI tumour cell line growth inhibition, 48 h
CCRF-CEM leukemia = test system: CCRF-CEM leukemia
OVCAR-5 ovarian = test system: OVCAR-5 ovarian
MOLT-4 leukemia = test system: MOLT-4 leukemia
EKVX NSCLC = test system: EKVX NSCLC
HOP-18 NSCLC = test system: HOP-18 NSCLC
SF-539 CNS = test system: SF-539 CNS
RXF-631 renal = test system: RXF-631 renal
OVCAR-8 ovarian = test system: OVCAR-8 ovarian
HCC-2998 colon = test system: HCC-2998 colon
NCI-H23 lung = test system: NCI-H23 lung
HCT-15 colon = test system: HCT-15 colon
SNB-75 CNS = test system: SNB-75 CNS
TK-10 renal = test system: TK-10 renal
RPMI-8226 leukemia = test system: RPMI-8226 leukemia
UACC-62 melanoma = test system: UACC-62 melanoma
K-562 leukemia = test system: K-562 leukemia
A498 renal = test system: A498 renal
HOP-92 NSCLC = test system: HOP-92 NSCLC
OVCAR-3 ovarian = test system: OVCAR-3 ovarian
NCI-H460 lung = test system: NCI-H460 lung
UO-31 renal = test system: UO-31 renal
UACC-257 melanoma = test system: UACC-257 melanoma
HT29 colon = test system: HT29 colon
SK-MEL-28 melanoma = test system: SK-MEL-28 melanoma
COLO 205 colon = test system: COLO 205 colon
SR leukemia = test system: SR leukemia
M19-MEL melanoma = test system: M19-MEL melanoma
LXFL 529 NSCLC = test system: LXFL 529 NSCLC
U251 CNS = test system: U251 CNS
SW-620 colon = test system: SW-620 colon
SNB-78 CNS = test system: SNB-78 CNS
OVCAR-4 ovarian = test system: OVCAR-4 ovarian
CAKI-1 renal = test system: CAKI-1 renal
SNB-19 CNS = test system: SNB-19 CNS
DLD-1 colon = test system: DLD-1 colon
A549 NSCLC = test system: A549 NSCLC
SK-OV-3 ovarian = test system: SK-OV-3 ovarian
ACHN renal = test system: ACHN renal
LOX IMVI melanoma = test system: LOX IMVI melanoma
M14 melanoma = test system: M14 melanoma
MALME-3M melanoma = test system: MALME-3M melanoma
HOP-62 NSCLC = test system: HOP-62 NSCLC
NCI-H522 lung = test system: NCI-H522 lung
786-0 renal = test system: 786-0 renal
SK-MEL-5 melanoma = test system: SK-MEL-5 melanoma
XF 498 CNS = test system: XF 498 CNS
DMS 273 small cell lung = test system: DMS 273 small cell lung
NCI-H226 lung = test system: NCI-H226 lung
DMS 114 small cell lung = test system: DMS 114 small cell lung
HL-60(TB) leukemia = test system: HL-60(TB) leukemia
SK-MEL-2 melanoma = test system: SK-MEL-2 melanoma
RXF 393 renal = test system: RXF 393 renal
KM20L2 colon = test system: KM20L2 colon
HCT-116 colon = test system: HCT-116 colon
KM12 colon = test system: KM12 colon
SF-295 CNS = test system: SF-295 CNS
SN12C renal = test system: SN12C renal
SF-268 CNS = test system: SF-268 CNS
IGROV1 ovarian = test system: IGROV1 ovarian

## Cc1ccc(C2CC(c3cccc([N+](=O)[O-])c3)=Nc3ccccc3S2)cc1 (centres undefined)
CCRF-CEM leukemia
  TGI: > 81.8 µM
OVCAR-5 ovarian
  TGI: > 100 µM
MOLT-4 leukemia
  TGI: > 81.8 µM
EKVX NSCLC
  TGI: > 100 µM
HOP-18 NSCLC
  TGI: > 100 µM
SF-539 CNS
  TGI: > 96.3 µM
RXF-631 renal
  TGI: > 100 µM
OVCAR-8 ovarian
  TGI: > 71.4 µM
HCC-2998 colon
  TGI: > 100 µM
NCI-H23 lung
  TGI: > 76.4 µM
HCT-15 colon
  TGI: > 100 µM
SNB-75 CNS
  TGI: > 96.1 µM
TK-10 renal
  TGI: > 100 µM
RPMI-8226 leukemia
  TGI: 41.7 µM
UACC-62 melanoma
  TGI: > 100 µM
K-562 leukemia
  TGI: 77.2 µM
A498 renal
  TGI: > 100 µM
HOP-92 NSCLC
  TGI: 52.2 µM
OVCAR-3 ovarian
  TGI: > 74.7 µM
NCI-H460 lung
  TGI: > 100 µM
UO-31 renal
  TGI: > 83.6 µM
UACC-257 melanoma
  TGI: > 100 µM
HT29 colon
  TGI: 98.1 µM
SK-MEL-28 melanoma
  TGI: > 100 µM
COLO 205 colon
  TGI: > 100 µM
SR leukemia
  TGI: > 100 µM
M19-MEL melanoma
  TGI: > 100 µM
LXFL 529 NSCLC
  TGI: > 100 µM
U251 CNS
  TGI: > 79.5 µM
SW-620 colon
  TGI: 46.2 µM
SNB-78 CNS
  TGI: > 31.6 µM
OVCAR-4 ovarian
  TGI: > 100 µM
CAKI-1 renal
  TGI: > 100 µM
SNB-19 CNS
  TGI: > 100 µM
DLD-1 colon
  TGI: > 65 µM
A549 NSCLC
  TGI: > 100 µM
SK-OV-3 ovarian
  TGI: > 100 µM
ACHN renal
  TGI: > 100 µM
LOX IMVI melanoma
  TGI: 51.9 µM
M14 melanoma
  TGI: > 100 µM
MALME-3M melanoma
  TGI: > 100 µM
HOP-62 NSCLC
  TGI: > 100 µM
NCI-H522 lung
  TGI: 64.6 µM
786-0 renal
  TGI: 51.9 µM
SK-MEL-5 melanoma
  TGI: > 72.2 µM
XF 498 CNS
  TGI: > 100 µM
DMS 273 small cell lung
  TGI: > 100 µM
NCI-H226 lung
  TGI: > 100 µM
DMS 114 small cell lung
  TGI: 57.2 µM
HL-60(TB) leukemia
  TGI: 47.5 µM
SK-MEL-2 melanoma
  TGI: > 100 µM
RXF 393 renal
  TGI: > 89.3 µM
KM20L2 colon
  TGI: > 100 µM
HCT-116 colon
  TGI: 27.1 µM
KM12 colon
  TGI: 46.1 µM
SF-295 CNS
  TGI: > 100 µM
SN12C renal
  TGI: > 90.4 µM
SF-268 CNS
  TGI: 99.1 µM
IGROV1 ovarian
  TGI: > 100 µM
